Results published in PMC9496346, “Controversial Role of Transferrin in the Transport of Ruthenium Anticancer Drugs” (Biomolecules, 2022).

Tests used:
[1] = test system: protein in cell culture medium; experiment: Ru–protein binding in cell culture medium (gel filtration, GFAAS); type: in vitro ADME; conditions: basal medium with ~15 μM BSA, conditions B1 and B2
Description: An aliquot (50 µL) of cell culture medium from each well was passed through a separate Bio-Rad P6 centrifugal gel filtration column that was pre-saturated with PBS, according to manufacturer’s instructions. The eluants (50 ± 5 µL volume) contained protein-bound Ru fractions (>6 kDa molecular mass). The protein recovery, measured by Bradford assays, exceeded 95%. Another 50 µL sample of each medium was taken into separate tubes. Both the original and gel-filtered media samples were digested with 0.20 mL of 65% (v/v) HNO3 for 24 h. The digests were diluted with 0.75 mL of 0.10 M HCl, and the Ru content in the samples was determined by GFAAS. The percentage of protein binding was determined from the ratio of Ru content in the gel-filtered and original media samples [30, 31].

[2] = Decomposition of KP1019 in cell culture medium; type: in vitro ADME; conditions: 310 K; reported previously and confirmed in this work
[3] = test system: T1, recombinant human transferrin receptor 1 (TfR1); experiment: BLI of Tf–TfR1 binding in dilute cell culture media after uptake experiments; conditions: apoTf 30 μM + KP1019 60 μM in DMEM with ~15 μM BSA, vs same medium with apoTf only
T1 construct: extracellular domain (Cyst89-Phe760), (His)6-tagged at the N-terminus; purchased Sino Biological, Beijing, China (TfR1)
Description: The effects of Ru complexes on the Tf cycle were determined by BLI using previously developed protocols. The instrument used was a single-channel BLItz analyser (ForteBio, Menlo Park, CA, USA) with a tube holder (250 µL solution volume) and Ni(II)–nta coated optical probes held at 295 ± 1 K. Measurements used the Advanced Kinetics mode. […] Solutions of metal–Tf adducts (typical final Tf concentrations 150 nM or 1.0 µM) were prepared in the binding buffer (Section 2.1). The pH 7.4 binding buffer was used for Tf binding and dissociation from the probe, and the pH 5.6 buffer (Section 2.1) was used to mimic the endosomal step of the Tf cycle. Metal–Tf solutions (A1–A9 in Table 1) were diluted 100–400-fold, cell culture media were diluted 30-fold, and human serum samples were diluted 200-fold with the binding buffer immediately before the BLI measurements. All BLI data were background corrected by using data from buffer only runs with the same TfR1-loaded optical probe. Consistent BLI results were obtained in at least two independent measurements, using different probes and different batches of Tf solutions. Calculations of the Tf–TfR1 binding constants were performed using the 1:1 binding model (BLItz software, Version 1.1, Forte-Bio 2013), which can be used as a reasonable approximation of the physiological 2:2 Tf–TfR1 binding mechanism at low Tf concentrations.
(a) BLI response curves for 1.0 µM of human Tf at 295 K in dilute cell culture media after Ru uptake experiments by HepG2 cells (Section 3.2 in the main text). Media (serum-free DMEM, containing 1.0 mg mL−1 BSA as a background protein, as well as KP1019 and/or Tf, as shown in the figure legend), were collected after the end of uptake experiments, then were diluted 30-fold with buffer (20 mM HEPES + 25 mM NaHCO3 + 140 mM NaCl, pH = 7.4) and applied to TfR1-loaded BLI probe. Designations of the steps in Tf cycle (A–D) correspond to those in Figure 1d-f, main text. Calculated KD values (1:1 binding model, BLItz software) were as […]

HepG2 cells = experiment: Cellular Ru uptake by HepG2 cells (ICP-MS); type: cell-based, human; conditions: HepG2, 60 μM Ru, 24 h; B2 vs B1
Description: Human hepatoma (HepG2) cells were originally received from the American Type Culture Collection (ATCC, Cat. No. HB-8065) and cultured as described previously. This cell line was used for Tf-dependent metal uptake studies because of the high expression levels of human TfR1 [43]. For treatments, the cells were grown to confluence in 24-well plates, using Advanced DMEM (Dulbecco’s modified Eagle’s minimal essential medium, Invitrogen Cat. No. 12491-015), supplemented with L-glutamine (2.0 mM), antibiotic-antimycotic mixture (100 mg mL^−1 penicillin, 100 mg mL^−1 steptomycin and 0.25 mg mL^−1 amphotericin B) and fetal calf serum (heat-inactivated, 2% v/v). Confluent cell layers were washed with serum-free treatment medium (DMEM, Invitrogen Cat. No. 19938-025), supplemented with glutamine, antibiotic-antimycotic mixture and 1.0 mg mL^−1 AlbuMax (Gibco Cat. No. 11020-021). […] After washing, the wells were filled with the treatment medium containing metal additions (detailed in B1–B9 of Table 1). The treatment media were sterilized by filtration through 0.2 µm membrane filters, and pre-equilibrated for 24 h at 310 K and 5% CO2 prior to the addition to cells, except for sample B1 that was used immediately after preparation. All the treatments were performed in triplicate, using random well positions to avoid experimental bias.
After 24 h incubation with the treatment media (B1–B9 in Table 1), the medium from each well was collected for the determination of Ru–protein binding and BLI analyses, and the wells were washed twice with PBS (0.50 mL/well). […]
The values of metal uptake were normalized using protein content in cell lysates. For protein determination, Bradford reagent (Sigma Cat. No B6916; 98 µL) was mixed with a small aliquot (2.0 µL) of each cell lysate, and the absorbance at 600 nm was measured using a Victor V3 plate reader. […] The test and calibration samples were analyzed in triplicate. […]

[4] = cited from earlier work

## [Cl-].[Cl-].[Cl-].[Cl-].[Ru+3].c1ccc2[nH][nH+]cc2c1.c1ccc2[nH]ncc2c1.c1ccc2[nH]ncc2c1 [KP1019, (IndH)[Ru^IIICl4(Ind)2]]
[1]
  Protein-bound proportion of KP1019 decomposition products in basal medium: ~ 50%
[2]
  Decomposition in cell culture medium (time): within several hours
[3]
  Effect on Tf–TfR1 binding in cell culture medium: did not have a major effect
HepG2 cells
  Decrease in Ru uptake after decomposition in cell culture medium for 24 h prior to addition to cells, vs fresh solution: ~ 30 fold
[4]; human pharmacokinetic studies
  Tf binding of KP1019 decomposition products in blood serum, share of total Ru: 1–2%
[4]; patients treated with KP1019 in clinical trials
  Typical peak Ru concentrations in the blood of patients: 0.1 to 0.4 mM
